Read-outs that look alike come from different tables or passages of the source.
Legend:
[1] = Log D7.4 measurement; type: physicochemical; details: pH 7.4; standard experimental conditions
Protocol: (§1) The Log D7.4 value of compound 1 was measured to be 2.69 under standard experimental conditions. Inhibition of multiple CYP was measured for compound 1 using standard CYP inhibition assays.

[2] = Human microsome stability; type: in vitro ADME
[3] = Maximum tolerated dose study; type: in vivo, male BALB/c mice; details: for MTD at 14 days: male, BALB/c, mouse, in vivo
Protocol: Three groups of three animals (male BALB/c mice) were administered increasing doses of compound 1 every other day for 14 days and the animals checked daily for the signs of moribundity, mortality, vocalization, and gross weight or body shape abnormalities. Dose escalation of compound 1 was performed according to the “modified Fibonacci search” scheme, compound 1 (x=2 mg/kg) was dosed at 4, 6.6, 10, 14, 24 and 32 mg/kg on Days 0, 2, 4, 6, 8 and 10. […] An average MTD of 21.1 mg/kg for the three groups combined was determined from this study.

[4] = Oral pharmacokinetic study, bioavailability; type: in vivo; details: rat, plasma, 5 mg/kg b.w., Male SD rats
Protocol: Fasted animals (Male and Female BALB/c mice or SD rats, ten groups, three animals per group) were administered with compound 1 in vehicle (5% (v/v) N,N-Dimethylacetamide, 50% (v/v) of 60% (w/v) Sulfobutyl ether beta-cyclodextrin (SBEβCD) and 45% (v/v) Sterile water for injection) by oral route with a dose of 2.5, 5, and 10 mg/kg body weight at dose volume of 10 mL/kg b.w. Under mild isoflurane anesthesia, blood specimen were collected into pre-labeled tubes containing anticoagulant (K2EDTA—2 mg/mL blood) at various time points (0.08, 0.16, 0.25, 0.50, 1.00, 2.00, 4.00, 6.00, 8.00 and 24.00 hours). Collected blood specimens were centrifuged at 4000 rpm, 4° C. for 10 minutes and plasma was separated and stored at −80° C. until analysis.

[5] = system: multiple CYP; test: Standard CYP inhibition assays; type: in vitro ADME; details: each assay
Protocol: as §1

[6] = Plasma protein binding; type: in vitro ADME
[7] = Intravenous pharmacokinetic study, observation for adverse symptoms; type: in vivo, male and female BALB/c mice; details: intravenous 1.0 mg/kg b.w., observed up to 24 hours post dose
Protocol: Non-fasted animals (Male and Female BALB/c mice or SD rats, ten groups, three animals per group) were administered with compound 1 in vehicle (5% (v/v) N,N-Dimethylacetamide, 50% (v/v) of 60% (w/v) Hydroxypropyl beta-Cyclodextrin, 45% (v/v) Sterile water for injection) by intravenous route with various doses 0.5, 1, 2.5, and 5 mg/kg body weight at dose volume of 10 mL/kg body weight. Under mild isoflurane anesthesia, blood specimens were collected into pre-labeled tubes containing anticoagulant (K2EDTA—2 mg/mL blood) at various time points (0.08, 0.16, 0.25, 0.50, 1.00, 2.00, 4.00, 6.00, 8.00 and 24.00 hours). Collected blood specimens were centrifuged at 4000 rpm, 4° C. for 10 minutes and plasma was separated and stored at −80° C. until analysis.

[8] = system: 786-O xenografts (renal cell carcinoma); test: Mouse xenograft study, 786-O renal cell carcinoma; type: in vivo, mice
Protocol: Mouse xenograft study was conducted to evaluate the primary endpoint of efficacy (reduction in tumor volume of >50% as compared to control) and the secondary endpoint of survival (Kaplan-Meier). Tumors were established in the flank region and grown to about 100 mm^3 The mice were treated with compound 1 in the 786-O xenografts (renal cell carcinoma) at 1 mg/kg given IV. The compound was injected every fourth day for 45 days (a total of 11 injections, see following table).
All tumors were imaged at the end of the study and harvested for histopathology studies. Percentages of tumor volumes in control and compound 1—treated mice measured throughout the entire duration of the experiments. Error bars are ±SEM of each experimental group.
After the last treatment with compound 1, mice were injected with the tumor-targeting near-infrared (NIR) contrast agent IR-783, anesthetized and imaged on a Xenogen IVIS 200 small animal imager. The fluorescence output was processed with Living Image software with one representative sample for each group presented above.

[9] = system: HIF1a; details: cited from earlier work
[10] = biological target: HIF/p300 complex (Homo sapiens, UniProt Q09472); details: cited from earlier work
Sequence of HIF/p300 complex (Q09472 whole entry, one chain of several): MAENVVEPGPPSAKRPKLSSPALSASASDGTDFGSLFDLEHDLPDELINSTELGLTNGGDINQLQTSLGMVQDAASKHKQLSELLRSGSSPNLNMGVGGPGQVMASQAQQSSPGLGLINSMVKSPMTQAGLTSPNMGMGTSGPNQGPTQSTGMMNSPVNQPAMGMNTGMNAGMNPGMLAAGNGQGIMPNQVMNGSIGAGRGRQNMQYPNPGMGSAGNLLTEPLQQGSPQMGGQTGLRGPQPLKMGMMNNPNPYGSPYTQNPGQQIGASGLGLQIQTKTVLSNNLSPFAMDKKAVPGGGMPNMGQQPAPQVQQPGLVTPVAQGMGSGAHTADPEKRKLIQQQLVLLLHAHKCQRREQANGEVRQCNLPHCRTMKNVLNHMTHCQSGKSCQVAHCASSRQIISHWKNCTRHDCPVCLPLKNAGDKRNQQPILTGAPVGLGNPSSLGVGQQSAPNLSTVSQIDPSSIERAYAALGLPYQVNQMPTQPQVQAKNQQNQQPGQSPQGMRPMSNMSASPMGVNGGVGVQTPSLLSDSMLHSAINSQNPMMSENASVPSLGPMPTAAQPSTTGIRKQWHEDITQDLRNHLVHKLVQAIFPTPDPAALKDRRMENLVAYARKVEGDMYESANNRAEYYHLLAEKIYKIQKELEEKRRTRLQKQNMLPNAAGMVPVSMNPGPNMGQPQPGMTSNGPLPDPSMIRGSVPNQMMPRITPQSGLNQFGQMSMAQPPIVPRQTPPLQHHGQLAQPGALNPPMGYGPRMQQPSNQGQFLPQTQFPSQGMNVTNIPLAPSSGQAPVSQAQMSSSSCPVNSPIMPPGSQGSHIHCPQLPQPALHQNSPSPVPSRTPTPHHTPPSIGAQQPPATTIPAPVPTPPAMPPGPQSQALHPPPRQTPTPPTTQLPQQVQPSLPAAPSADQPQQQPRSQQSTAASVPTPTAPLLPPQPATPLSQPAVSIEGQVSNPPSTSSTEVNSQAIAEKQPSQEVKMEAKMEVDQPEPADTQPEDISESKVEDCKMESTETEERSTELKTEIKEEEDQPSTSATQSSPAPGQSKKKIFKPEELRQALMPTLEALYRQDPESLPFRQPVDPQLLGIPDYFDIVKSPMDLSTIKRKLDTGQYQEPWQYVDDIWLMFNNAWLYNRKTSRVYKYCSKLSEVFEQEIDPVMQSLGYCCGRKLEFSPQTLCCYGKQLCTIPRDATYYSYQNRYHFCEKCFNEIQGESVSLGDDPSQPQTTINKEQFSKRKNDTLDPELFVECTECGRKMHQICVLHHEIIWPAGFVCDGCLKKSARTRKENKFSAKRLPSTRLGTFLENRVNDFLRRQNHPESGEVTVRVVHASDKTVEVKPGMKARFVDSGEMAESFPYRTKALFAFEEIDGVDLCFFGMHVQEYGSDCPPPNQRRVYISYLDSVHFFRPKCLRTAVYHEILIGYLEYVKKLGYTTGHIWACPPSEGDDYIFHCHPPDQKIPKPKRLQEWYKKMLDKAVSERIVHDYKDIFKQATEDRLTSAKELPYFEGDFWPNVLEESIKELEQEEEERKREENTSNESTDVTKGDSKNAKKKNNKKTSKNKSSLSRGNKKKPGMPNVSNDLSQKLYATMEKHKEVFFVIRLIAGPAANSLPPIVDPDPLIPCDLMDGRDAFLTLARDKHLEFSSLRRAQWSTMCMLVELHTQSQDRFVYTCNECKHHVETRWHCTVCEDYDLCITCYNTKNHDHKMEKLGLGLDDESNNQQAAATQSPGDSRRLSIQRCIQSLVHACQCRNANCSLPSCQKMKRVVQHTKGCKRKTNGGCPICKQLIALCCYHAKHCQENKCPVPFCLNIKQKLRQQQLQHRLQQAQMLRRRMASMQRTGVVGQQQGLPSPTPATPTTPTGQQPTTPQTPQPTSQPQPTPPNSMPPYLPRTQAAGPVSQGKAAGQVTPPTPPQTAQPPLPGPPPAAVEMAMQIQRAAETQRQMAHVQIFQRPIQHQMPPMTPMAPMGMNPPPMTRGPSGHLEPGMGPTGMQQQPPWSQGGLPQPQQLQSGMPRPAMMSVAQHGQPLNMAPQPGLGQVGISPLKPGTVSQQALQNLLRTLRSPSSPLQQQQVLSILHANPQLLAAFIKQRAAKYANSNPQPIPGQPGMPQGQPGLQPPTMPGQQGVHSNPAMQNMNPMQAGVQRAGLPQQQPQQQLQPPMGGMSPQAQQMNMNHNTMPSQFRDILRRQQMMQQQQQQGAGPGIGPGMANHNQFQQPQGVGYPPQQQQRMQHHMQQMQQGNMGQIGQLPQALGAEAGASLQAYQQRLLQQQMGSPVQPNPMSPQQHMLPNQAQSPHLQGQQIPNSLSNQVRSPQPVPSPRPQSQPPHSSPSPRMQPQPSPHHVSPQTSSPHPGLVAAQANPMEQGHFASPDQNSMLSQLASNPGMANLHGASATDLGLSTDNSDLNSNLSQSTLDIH

CN1C(=O)[C@]2(Cc3ccc(CCc4ccc(C[C@@]56SS[C@@](CO)(C(=O)N5C)N(C)C6=O)cc4)cc3)SS[C@@]1(CO)C(=O)N2C (racemic) [Compound 1, (±)-4,4′-((ethane-1,2-diylbis(4,1-phenylene))bis(methylene))bis(1-(hydroxymethyl)-5,7-dimethyl-2,3-dithia-5,7-diazabicyclo[2.2.2]octane-6,8-dione)]
logD [1]: 2.69
in vitro clearance, human microsome stability studies [2]: favorable in vitro clearance
human microsome stability T1/2 ([2]; in the presence of co-factor): short
signs of toxicity ([3]; 14 mg/kg dose, male BALB/c mice): no signs of toxicity
signs of toxicity ([3]; 24 mg/kg dose, male BALB/c mice): one animal exhibited signs of toxicity
animals affected per group of three (quantity not given) ([3]; Dose 4 mg/kg, Group 1): 0
animals affected per group of three (quantity not given) ([3]; Dose 4 mg/kg, Group 2): 0
animals affected per group of three (quantity not given) ([3]; Dose 4 mg/kg, Group 3): 0
animals affected per group of three (quantity not given) ([3]; Dose 6.6 mg/kg, Group 1): 0
animals affected per group of three (quantity not given) ([3]; Dose 6.6 mg/kg, Group 2): 0
animals affected per group of three (quantity not given) ([3]; Dose 6.6 mg/kg, Group 3): 0
animals affected per group of three (quantity not given) ([3]; Dose 10 mg/kg, Group 1): 0
animals affected per group of three (quantity not given) ([3]; Dose 10 mg/kg, Group 2): 0
animals affected per group of three (quantity not given) ([3]; Dose 10 mg/kg, Group 3): 0
animals affected per group of three (quantity not given) ([3]; Dose 14 mg/kg, Group 1): 0
animals affected per group of three (quantity not given) ([3]; Dose 14 mg/kg, Group 2): 0
animals affected per group of three (quantity not given) ([3]; Dose 14 mg/kg, Group 3): 0
animals affected per group of three (quantity not given) ([3]; Dose 24 mg/kg, Group 1): 0
animals affected per group of three (quantity not given) ([3]; Dose 24 mg/kg, Group 2): 1
animals affected per group of three (quantity not given) ([3]; Dose 24 mg/kg, Group 3): 1
animals affected per group of three (quantity not given) ([3]; Dose 32 mg/kg, Group 1): 3
animals affected per group of three (quantity not given) ([3]; Dose 32 mg/kg, Group 2): 3
animals affected per group of three (quantity not given) ([3]; Dose 32 mg/kg, Group 3): 3
MTD at 14 days ([3]; Group 1, read-out: MTD): 25.3 mg/kg
MTD at 14 days ([3]; Group 2, read-out: MTD): 19 mg/kg
MTD at 14 days ([3]; Group 3, read-out: MTD): 19 mg/kg
MTD at 14 days ([3]; three groups combined, male BALB/c mice, read-out: Average MTD): 21.1 mg/kg
bioavailability [4]: 28%
IC50 [5]: > 5 µM
plasma protein binding [6]: highly protein bound
adverse symptoms after dosing [7]: found to be normal
median tumor volume increase ([8]; 786-O xenografts in mice, 46 day experiment, control group 288%, P<0.01): 113%
intensity of the NIR signal from tumor-accumulated contrast agent IR-783 compared to control group ([8]; after last treatment, Xenogen IVIS 200 imaging): significantly lower intensity
weight loss ([8]; during the 45 day experiment): 5-8%

COc1cc2c(cc1O)CC[C@@H]1[C@@H]2CC[C@]2(C)[C@@H](O)CC[C@@H]12 [2-methoxyestradiol]
HIF1a levels in vitro [9]: reduce HIFIa levels

CN1C(=O)[C@]2(Cc3cn([C@]45C[C@@]67SS[C@@](CO)(C(=O)N6[C@H]4Nc4ccccc45)N(C)C7=O)c4ccccc34)SS[C@@]1(CO)C(=O)N2C [chetomin]
inhibition of the HIF/p300 complex [10]: potent and specific inhibition

Reference: patent publication US20150284349A1 (priority 2013, published 2015)
